Values joined by “and” are separate entries in the source; they are usually repeats but may differ in a detail not shown here. Equal values may be shown once.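 Where inhibition never reached the appropriate level, the endpoint shown equals the highest concentration tested. Otherwise, values were interpolated linearly from a five-concentration, 48-hour dose response in 96-well plates. GI50 marks 50% less growth. TGI denotes the concentration required for complete inhibition of growth.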
Assays:
Experiment in all cases: inhibition of tumour cell growth, NCI panel, 48 h
HT29 colon = test system: HT29 colon
LOX IMVI melanoma = test system: LOX IMVI melanoma
EKVX NSCLC = test system: EKVX NSCLC
HS 578T breast = test system: HS 578T breast
MCF7 breast = test system: MCF7 breast
SK-OV-3 ovarian = test system: SK-OV-3 ovarian
PC-3 prostate = test system: PC-3 prostate
NCI-H226 lung = test system: NCI-H226 lung
SF-268 CNS = test system: SF-268 CNS
ACHN renal = test system: ACHN renal
UACC-257 melanoma = test system: UACC-257 melanoma
A498 renal = test system: A498 renal
NCI-H522 lung = test system: NCI-H522 lung
OVCAR-4 ovarian = test system: OVCAR-4 ovarian
TK-10 renal = test system: TK-10 renal
T-47D breast = test system: T-47D breast
RPMI-8226 leukemia = test system: RPMI-8226 leukemia
SK-MEL-2 melanoma = test system: SK-MEL-2 melanoma
K-562 leukemia = test system: K-562 leukemia
COLO 205 colon = test system: COLO 205 colon
MDA-MB-435 = test system: MDA-MB-435
SR leukemia = test system: SR leukemia
SK-MEL-5 melanoma = test system: SK-MEL-5 melanoma
U251 CNS = test system: U251 CNS
SK-MEL-28 melanoma = test system: SK-MEL-28 melanoma
NCI-H23 lung = test system: NCI-H23 lung
HCT-116 colon = test system: HCT-116 colon
MDA-MB-231 breast = test system: MDA-MB-231 breast
SNB-75 CNS = test system: SNB-75 CNS
RXF 393 renal = test system: RXF 393 renal
SF-295 CNS = test system: SF-295 CNS
MALME-3M melanoma = test system: MALME-3M melanoma
OVCAR-5 ovarian = test system: OVCAR-5 ovarian
DU-145 prostate = test system: DU-145 prostate
MOLT-4 leukemia = test system: MOLT-4 leukemia
HOP-62 NSCLC = test system: HOP-62 NSCLC
NCI/ADR-RES ovarian = test system: NCI/ADR-RES ovarian
OVCAR-8 ovarian = test system: OVCAR-8 ovarian
BT-549 breast = test system: BT-549 breast
SF-539 CNS = test system: SF-539 CNS
SN12C renal = test system: SN12C renal
SNB-19 CNS = test system: SNB-19 CNS
MDA-N = test system: MDA-N
786-0 renal = test system: 786-0 renal
A549 NSCLC = test system: A549 NSCLC
HL-60(TB) leukemia = test system: HL-60(TB) leukemia
HCT-15 colon = test system: HCT-15 colon
UO-31 renal = test system: UO-31 renal
OVCAR-3 ovarian = test system: OVCAR-3 ovarian
M14 melanoma = test system: M14 melanoma
IGROV1 ovarian = test system: IGROV1 ovarian
UACC-62 melanoma = test system: UACC-62 melanoma
CCRF-CEM leukemia = test system: CCRF-CEM leukemia
HOP-92 NSCLC = test system: HOP-92 NSCLC
SW-620 colon = test system: SW-620 colon
CAKI-1 renal = test system: CAKI-1 renal
KM12 colon = test system: KM12 colon
NCI-H460 lung = test system: NCI-H460 lung
HCC-2998 colon = test system: HCC-2998 colon

CN(C)C=Nc1ccc2c3c(cccc13)-c1ccccc1-2
TGI (HT29 colon): 21.6 µM
TGI (LOX IMVI melanoma): 28.3 µM
TGI (EKVX NSCLC): 22.4 µM
TGI (HS 578T breast): 24.9 µM
TGI (MCF7 breast): 30.7 µM
TGI (SK-OV-3 ovarian): 26.5 µM
TGI (PC-3 prostate): 26.3 µM
TGI (NCI-H226 lung): 22.8 µM
TGI (SF-268 CNS): 26.8 µM
TGI (ACHN renal): 31.6 µM
TGI (UACC-257 melanoma): 31.9 µM
TGI (A498 renal): 21.7 µM
TGI (NCI-H522 lung): 18.8 µM
TGI (OVCAR-4 ovarian): 31.6 µM
TGI (TK-10 renal): 26.7 µM
TGI (T-47D breast): 31.3 µM
TGI (RPMI-8226 leukemia): 38.9 µM
TGI (SK-MEL-2 melanoma): 31.1 µM
TGI (K-562 leukemia): 22.1 µM
TGI (COLO 205 colon): 30.9 µM
TGI (MDA-MB-435): 28.3 µM
TGI (SR leukemia): 26.3 µM
TGI (SK-MEL-5 melanoma): 28.1 µM
TGI (U251 CNS): 26.2 µM
TGI (SK-MEL-28 melanoma): 31.9 µM
TGI (NCI-H23 lung): 32.9 µM
TGI (HCT-116 colon): 28.7 µM
TGI (MDA-MB-231 breast): 28.2 µM
TGI (SNB-75 CNS): 28.9 µM
TGI (RXF 393 renal): 21 µM
TGI (SF-295 CNS): 27.9 µM
TGI (MALME-3M melanoma): 34.6 µM
TGI (OVCAR-5 ovarian): 23.1 µM
TGI (DU-145 prostate): 25.7 µM
TGI (MOLT-4 leukemia): 24.8 µM
TGI (HOP-62 NSCLC): 29.5 µM
TGI (NCI/ADR-RES ovarian): 31.4 µM
TGI (OVCAR-8 ovarian): 29.8 µM
TGI (BT-549 breast): 32 µM
TGI (SF-539 CNS): 24.5 µM
TGI (SN12C renal): 25.1 µM
TGI (SNB-19 CNS): 27.4 µM
TGI (MDA-N): 27.6 µM
TGI (786-0 renal): 26 µM
TGI (A549 NSCLC): 23.7 µM
TGI (HL-60(TB) leukemia): 23.2 µM
TGI (HCT-15 colon): 24.1 µM
TGI (UO-31 renal): 19.6 µM
TGI (OVCAR-3 ovarian): 28.9 µM
TGI (M14 melanoma): 22.1 µM
TGI (IGROV1 ovarian): 28.8 µM
TGI (UACC-62 melanoma): 38.8 µM
TGI (CCRF-CEM leukemia): 17.2 µM
TGI (HOP-92 NSCLC): 24.9 µM

CC(=O)c1c(-c2ccc(Cl)cc2)c(C#N)c(=S)n(C2OC(CO)C(O)C(O)C2O)c1-c1ccccc1 (stereo not drawn)
TGI (HT29 colon): > 100 µM
GI50 (LOX IMVI melanoma): 15.9 µM and > 100 µM
TGI (LOX IMVI melanoma): > 100 µM
GI50 (EKVX NSCLC): 99.7 µM and 22.2 µM
TGI (EKVX NSCLC): > 100 µM
TGI (HS 578T breast): > 100 µM
TGI (SW-620 colon): > 100 µM
TGI (MCF7 breast): > 100 µM
TGI (SK-OV-3 ovarian): > 100 µM
GI50 (PC-3 prostate): 7.97 µM and 58.6 µM
TGI (PC-3 prostate): > 100 µM
TGI (NCI-H226 lung): > 100 µM
TGI (SF-268 CNS): > 100 µM
TGI (ACHN renal): > 100 µM
TGI (UACC-257 melanoma): > 100 µM
GI50 (A498 renal): > 100 µM and 49.7 µM
TGI (A498 renal): > 100 µM
TGI (NCI-H522 lung): > 100 µM
GI50 (OVCAR-4 ovarian): > 86.4 µM and 14.7 µM
TGI (OVCAR-4 ovarian): > 100 µM
TGI (TK-10 renal): > 100 µM
TGI (CAKI-1 renal): > 100 µM
TGI (T-47D breast): > 100 µM
TGI (RPMI-8226 leukemia): > 100 µM
GI50 (SK-MEL-2 melanoma): > 84.5 µM and 35 µM
TGI (SK-MEL-2 melanoma): > 100 µM
GI50 (K-562 leukemia): 26 µM and > 100 µM
TGI (K-562 leukemia): > 100 µM
GI50 (COLO 205 colon): 47.3 µM and > 100 µM
TGI (COLO 205 colon): > 100 µM
TGI (MDA-MB-435): > 100 µM
TGI (SR leukemia): 61.8 µM and > 100 µM
GI50 (SK-MEL-5 melanoma): 31.8 µM and > 100 µM
TGI (SK-MEL-5 melanoma): > 100 µM
GI50 (U251 CNS): 42.8 µM and > 100 µM
TGI (U251 CNS): > 100 µM
TGI (SK-MEL-28 melanoma): > 100 µM
TGI (NCI-H23 lung): > 100 µM
GI50 (HCT-116 colon): 17.4 µM and > 100 µM
TGI (HCT-116 colon): > 100 µM
GI50 (MDA-MB-231 breast): > 22.6 µM and 76.3 µM
TGI (MDA-MB-231 breast): > 100 µM
TGI (KM12 colon): > 100 µM
TGI (SNB-75 CNS): > 100 µM
TGI (NCI-H460 lung): > 100 µM
TGI (RXF 393 renal): > 100 µM
TGI (SF-295 CNS): > 100 µM
TGI (MALME-3M melanoma): > 100 µM
GI50 (OVCAR-5 ovarian): > 100 µM
TGI (OVCAR-5 ovarian): > 100 µM
TGI (DU-145 prostate): > 100 µM
TGI (MOLT-4 leukemia): 29.2 µM and > 100 µM
GI50 (HOP-62 NSCLC): 39.8 µM and > 100 µM
TGI (HOP-62 NSCLC): > 100 µM
TGI (NCI/ADR-RES ovarian): > 100 µM
TGI (OVCAR-8 ovarian): > 100 µM
TGI (BT-549 breast): > 100 µM
GI50 (SF-539 CNS): > 100 µM
TGI (SF-539 CNS): > 100 µM
TGI (SN12C renal): > 100 µM
GI50 (SNB-19 CNS): 34.8 µM and > 100 µM
TGI (SNB-19 CNS): > 100 µM
TGI (MDA-N): > 100 µM
GI50 (786-0 renal): 48.8 µM and > 100 µM
TGI (786-0 renal): > 100 µM
GI50 (A549 NSCLC): 46.7 µM and > 100 µM
TGI (A549 NSCLC): > 100 µM
GI50 (HL-60(TB) leukemia): 30.9 µM and 62.2 µM
TGI (HL-60(TB) leukemia): > 100 µM
TGI (HCC-2998 colon): > 100 µM
TGI (HCT-15 colon): > 100 µM
TGI (OVCAR-3 ovarian): > 100 µM
TGI (M14 melanoma): > 100 µM
TGI (IGROV1 ovarian): > 100 µM
GI50 (UACC-62 melanoma): 4.85 µM and 21.9 µM
TGI (UACC-62 melanoma): > 100 µM
GI50 (CCRF-CEM leukemia): 13.1 µM and 55.4 µM
TGI (CCRF-CEM leukemia): 99.5 µM and > 100 µM
TGI (HOP-92 NSCLC): > 100 µM and 74.1 µM

From PubChem BioAssay (NCI)
